Measurements reported in ChEMBL document CHEMBL1122053, “A new, potent, conformationally restricted analogue of amphetamine: 2-amino-1,2-dihydronaphthalene” (1982).
Active and inactive are the calls of the source. The rule behind the calls is not given here.

Key:
Mus musculus [1] = species on record: Mus musculus; test: Evaluated for the spontaneous motor activity in mice and the mean total activity (MTA) was reported; Expressed as counts/90 min/3 mice; format: functional
Mus musculus [2] = species on record: Mus musculus; test: Evaluated for the percentage blockade of activity in mice; format: functional
Mus musculus [3] = test: Ability to stimulate mice at dose of 8 mg/kg; Slight increase in spontaneous motor activity; format: functional, organism-based; parameters: dose 8 mg/kg
Rattus norvegicus [4] = test: Number of rats falling (3) within each stereotypy classification after intraperitoneal administration (110 uM/Kg); continuous sniffing, some head bobbing and weaving (total rats 4); format: functional, organism-based
Rattus norvegicus [5] = test: Number of rats falling (1) within each stereotypy classification after intraperitoneal administration (110 uM/Kg); continuous sniffing, some arousal; format: functional, organism-based
Rattus norvegicus [6] = test: Number of rats falling (4) within each stereotypy classification after intraperitoneal administration (110 uM/Kg); continuous sniffing, with repetitive sequences of head and limb movements, as well as some licking and rearing (total rats 4); format: functional, organism-based

CC(N)Cc1ccccc1.COC(=O)C(C)(N)Cc1ccc(O)cc1 (stereo not given)
MTA (Mus musculus [1]): 5144
Block of activity (Mus musculus [2]): 64.2%

COC(=O)C(C)(N)Cc1ccc(O)cc1.NC1C=Cc2ccccc2C1 (stereo not given)
MTA (Mus musculus [1]): 3491
Block of activity (Mus musculus [2]): 59.3%

NC1CCc2ccccc2C1 (stereo not given)
Activity (Mus musculus [3]): Active

COC(=O)[C@H]1[C@H]2C[C@@H]3c4[nH]c5cc(OC)ccc5c4CCN3C[C@H]2C[C@@H](OC(=O)c2cc(OC)c(OC)c(OC)c2)[C@@H]1OC.Cl.NC1C=Cc2ccccc2C1 (racemic)
Activity (Rattus norvegicus [4]): continuous sniffing, some arousal
Activity (Rattus norvegicus [5]): continuous sniffing, some arousal

NC1C=Cc2ccccc2C1 (racemic)
Activity (Rattus norvegicus [6]): continuous sniffing, with repetitive sequences of head and limb movements, as well as some licking and rearing (total rats 4)

Cl.NC1C=Cc2ccccc2C1 (single isomer, unassigned; (-))
MTA (Mus musculus [1]): 8566

C[C@H](N)Cc1ccccc1 [DEXTROAMPHETAMINE]
MTA (Mus musculus [1]): 14356
